Laboratory results taken from patent US10351827B2, “Method for differentiating induced pluripotent stem cells into renal proximal tubular cell-like cells” (priority 2013, dated 2019).
Like-named read-outs stand apart in the source and are kept apart here.

Key:
OCT2 = OCT2 (Homo sapiens, UniProt O15244); conditions: co-incubation of 100 μg/ml rifampicin with 2 mM cimetidine, iPS(Foreskin)-4-derived d8 cells
PTC in humans = conditions: cited from earlier work
[1] = tested on: iPS(Foreskin)-4-derived d8 HPTC-like cells
HPTCs = conditions: similar experiments performed with HPTCs; cited from earlier work
[2] = tested on: hiPSC-derived HPTC-like cells; assay: nephrotoxicology in vitro model based on interleukin-6/interleukin-8 expression (Example 1)
[3] = tested on: hiPSC-derived HPTC-like cells
[4] = 1 μg/ml, overnight (16 h), qPCR, normalized to vehicle control (=1), mean +/- s.d., n=3
[5] = 10 μg/ml, overnight (16 h), qPCR, normalized to vehicle control (=1), mean +/- s.d., n=3
[6] = 100 μg/ml, overnight (16 h), qPCR, normalized to vehicle control (=1), mean +/- s.d., n=3
[7] = 1,000 μg/ml, overnight (16 h), qPCR, normalized to vehicle control (=1), mean +/- s.d., n=3

Sequence of OCT2 (O15244 whole entry): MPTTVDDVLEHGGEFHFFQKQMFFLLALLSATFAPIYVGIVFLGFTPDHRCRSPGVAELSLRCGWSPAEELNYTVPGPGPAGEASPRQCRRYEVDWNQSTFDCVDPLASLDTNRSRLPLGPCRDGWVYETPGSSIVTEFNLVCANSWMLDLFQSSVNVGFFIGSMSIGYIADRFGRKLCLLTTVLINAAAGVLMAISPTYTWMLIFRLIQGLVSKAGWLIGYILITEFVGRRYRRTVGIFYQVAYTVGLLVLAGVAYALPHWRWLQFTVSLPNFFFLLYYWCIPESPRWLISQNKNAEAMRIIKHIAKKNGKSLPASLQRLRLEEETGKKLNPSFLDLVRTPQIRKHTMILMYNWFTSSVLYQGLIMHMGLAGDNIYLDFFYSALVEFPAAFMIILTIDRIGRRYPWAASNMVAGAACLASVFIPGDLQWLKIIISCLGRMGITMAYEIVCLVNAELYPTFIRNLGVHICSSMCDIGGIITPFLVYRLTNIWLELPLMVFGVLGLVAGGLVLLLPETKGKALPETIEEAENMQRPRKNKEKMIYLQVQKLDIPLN

| Molecule | nephrotoxicity / toxicity for PTC in humans (PTC in humans) | IL6 Expression Levels ([1]; human, 16 h, 1 μg/ml) | IL8 Expression Levels ([1]; human, 16 h, 1 μg/ml) | IL6 Expression Levels ([1]; human, 16 h, 10 μg/ml) | IL8 Expression Levels ([1]; human, 16 h, 10 μg/ml) | IL6 Expression Levels ([1]; human, 16 h, 100 μg/ml) | IL8 Expression Levels ([1]; human, 16 h, 100 μg/ml) | IL6 Expression Levels ([1]; human, 16 h, 1000 μg/ml) | also measured |
| --- | --- | --- | --- | --- | --- | --- | --- | --- | --- |
| CN/C(=N/CCSCc1nc[nH]c1C)NC#N [cimetidine] | – | – | – | – | – | – | – | – | reduction of rifampicin-induced IL6 expression (OCT2): 40%; reduction of rifampicin-induced IL8 expression (OCT2): 26% |
| CC(=O)OCC1=C(C(=O)O)N2C(=O)[C@@H](NC(=O)CCC[C@@H](N)C(=O)O)[C@H]2SC1 [Cephalosporin C] | directly toxic for PTC | – | – | – | – | – | – | – | – |
| CC1=C2C(=CO[C@H](C)[C@H]2C)C(O)=C(C(=O)O)C1=O [Citrinin] | directly toxic for PTC | – | – | – | – | – | – | – | increase of IL6 expression ([1]; human): ~6 fold; increase of IL8 expression ([1]; human): no increase in IL8 expression was observed |
| [Cl-].[Li+] [Lithium chloride] | nephrotoxicants that do not damage PTC directly | – | – | – | – | – | – | – | – |
| C[n+]1ccc(-c2cc[n+](C)cc2)cc1 [Paraquat] | directly toxic for PTC | – | – | – | – | – | – | – | cell numbers after treatment (HPTCs): a decrease in cell numbers was not observed; IL-6 expression after treatment [2]: increase |
| OCCO [Ethylene glycol] | nephrotoxicants that do not damage PTC directly | – | – | – | – | – | – | – | – |
| CO[C@H]1/C=C/O[C@@]2(C)Oc3c(C)c(O)c4c(O)c(c(/C=N/N5CCN(C)CC5)c(O)c4c3C2=O)NC(=O)/C(C)=C\C=C\[C@H](C)[C@H](O)[C@@H](C)[C@@H](O)[C@@H](C)[C@H](OC(C)=O)[C@@H]1C [Rifampicin] | – | 5.8 ± 0.9 | 2.5 ± 0.4 | 4.5 ± 0.3 | 3.4 ± 0.3 | 2.3 ± 0.2 | 9.7 ± 0.3 | 9.3 ± 0.6 | IL-6 expression after treatment [3]: increase; IL-8 expression after treatment [3]: increase; increase of IL6 expression ([1]; human, 16 h, 100 μg/ml): ~17 fold; increase of IL8 expression ([1]; human, 16 h, 100 μg/ml): ~18 fold; IL8 Expression Levels ([1]; human, 16 h, 1000 μg/ml): 18.2 ± 1.2 |
| O=[As]O[As]=O (stereo not shown) [Arsenic (III) oxide] | – | – | – | – | – | – | – | – | IL6 Expression Levels [1, 4]: 1.5 ± 0.1; IL8 Expression Levels [1, 4]: 1.2 ± 0.5; IL6 Expression Levels [1, 5]: 5.2 ± 0.1; IL8 Expression Levels [1, 5]: 4.2 ± 0.1; IL6 Expression Levels [1, 6]: 14.2 ± 2.1; IL8 Expression Levels [1, 6]: 1.5 ± 0.2; IL6 Expression Levels [1, 7]: 8.2 ± 0.3; IL8 Expression Levels [1, 7]: 3.9 ± 1.6 |
| COc1cccc2c1cc([N+](=O)[O-])c1c(C(=O)O)cc3c(c12)OCO3 [Aristolochic acid] | – | – | – | – | – | – | – | – | IL6 Expression Levels [1, 4]: 3.9 ± 0.5; IL8 Expression Levels [1, 4]: 5.0 ± 0.8; IL6 Expression Levels [1, 5]: 3.3 ± 0.2; IL8 Expression Levels [1, 5]: 4.8 ± 0.6; IL6 Expression Levels [1, 6]: 7.3 ± 1.6; IL8 Expression Levels [1, 6]: 43.5 ± 7.2; IL6 Expression Levels [1, 7]: 9.3 ± 0.5; IL8 Expression Levels [1, 7]: 1.6 ± 0.9 |
| C=CC[C@@H]1/C=C(\C)C[C@H](C)C[C@H](OC)[C@H]2O[C@@](O)(C(=O)C(=O)N3CCCC[C@H]3C(=O)O[C@H](/C(C)=C/[C@@H]3CC[C@@H](O)[C@H](OC)C3)[C@H](C)[C@@H](O)CC1=O)[C@H](C)C[C@@H]2OC [Tacrolimus] | – | 6.6 ± 0.6 | 7.8 ± 0.4 | 6.1 ± 0.2 | 5.1 ± 0.6 | – | – | – | – |
| Gentamicin | directly toxic for PTC | – | – | – | – | – | – | – | cell numbers after treatment (HPTCs): a decrease in cell numbers was not observed |
| CCC[C@@H]1C[C@@H](C(=O)N[C@@H]([C@H]2O[C@H](SC)[C@H](O)[C@@H](O)[C@H]2O)[C@@H](C)O)N(C)C1 [Lincomycin] | – | 1.2 ± 0.1 | 1.2 ± 1.2 | 1.3 ± 0.1 | 1.2 ± 0.3 | 1.2 ± 0.1 | 2.4 ± 0.9 | 1.4 ± 0.2 | IL8 Expression Levels ([1]; human, 16 h, 1000 μg/ml): 6.1 ± 0.5 |
| COc1ccc2[nH]cc(CCNC(C)=O)c2c1 [Melatonin] | – | 6.5 ± 0.8 | 9.8 ± 2.4 | 6.1 ± 0.4 | 6.9 ± 1.0 | 4.4 ± 0.4 | 1.9 ± 0.9 | 1.1 ± 0.1 | – |
| CC(C)[C@H](N)C(=O)OCCOCn1cnc2c(=O)[nH]c(N)nc21 [Valacyclovir] | – | 1.3 ± 0.1 | 1.5 ± 0.1 | 1.3 ± 0.1 | 1.4 ± 0.1 | 1.6 ± 0.1 | 1.0 ± 0.5 | 2.8 ± 0.4 | IL8 Expression Levels ([1]; human, 16 h, 1000 μg/ml): 32.5 ± 1.4 |
| Cl[C@H]1[C@H](Cl)[C@@H](Cl)[C@@H](Cl)[C@H](Cl)[C@H]1Cl [Lindane] | nephrotoxicants that do not damage PTC directly | – | – | – | – | – | – | – | – |
| O=c1[nH]cc(F)c(=O)[nH]1 [5-Fluorouracil] | – | 6.2 ± 0.7 | 7.4 ± 1.4 | 6.4 ± 0.3 | 9.2 ± 1.4 | 9.2 ± 1.2 | 18.3 ± 2.2 | 1.1 ± 0.2 | IL8 Expression Levels ([1]; human, 16 h, 1000 μg/ml): 5.7 ± 0.5 |
| NCC(=O)O [Glycine] | – | 1.6 ± 0.1 | 1.6 ± 0.6 | 1.9 ± 0.3 | 3.1 ± 1.5 | 1.7 ± 0.2 | 2.5 ± 0.6 | 1.9 ± 0.2 | IL8 Expression Levels ([1]; human, 16 h, 1000 μg/ml): 4.9 ± 1.9 |
